The subject of experiment [1] is Beet Armyworm (BAW) (Spodoptera exigua). Description: Bioassays on BAW, 128-well diet tray assay. The format is in vivo. To be noted: Spodoptera exigua, 168 h; 50 μg/cm^2 on artificial diet, second instar larvae, five to seven days, 25° C.; read-out: BAW Rating (percent mortality). As to the method:
(§1) Certain molecules disclosed in this document were tested against BAW, CEW and CL using procedures described in the following examples. In the reporting of the results, the “BAW & CEW & CL Rating Table” was used (See Table Section).
Bioassays on BAW (Spodoptera exigua)
Bioassays on BAW were conducted using a 128-well diet tray assay. One to five second instar BAW larvae were placed in each well (3 mL) of the diet tray that had been previously filled with 1 mL of artificial diet to which 50 μg/cm^2 of the test compound (dissolved in 50 μL of 90:10 acetone-water mixture) had been applied (to each of eight wells) and then allowed to dry. Trays were covered with a clear self-adhesive cover, and held at 25° C., 14:10 light-dark for five to seven days. Percent mortality was recorded for the larvae in each well; activity in the eight wells was then averaged. The results are indicated in the tables entitled “Table 3: Assay Results Part 1” and “Table 4: Assay Results Part 2” (See Table Section).

For experiment [2], the system named is Cabbage Looper (CL) (Trichoplusia ni). Description: Bioassays on CL, 128-well diet tray assay. The format is in vivo. To be noted: 168 h, 50 μg/cm^2 on artificial diet, second instar larvae, five to seven days, 25° C., read-out: CL Rating (percent mortality). As to the method:
as §1
Bioassays on CL (Trichoplusia ni)
Bioassays on CL were conducted using a 128-well diet tray assay. One to five second instar CL larvae were placed in each well (3 mL) of the diet tray that had been previously filled with 1 mL of artificial diet to which 50 μg/cm^2 of the test compound (dissolved in 50 μL of 90:10 acetone-water mixture) had been applied (to each of eight wells) and then allowed to dry. Trays were covered with a clear self-adhesive cover, and held at 25° C., 14:10 light-dark for five to seven days. Percent mortality was recorded for the larvae in each well; activity in the eight wells was then averaged. The results are indicated in the table entitled “Table 4: Assay Results Part 2” (See Table Section).

Usually mortality stands for the percentage killed.

As for `O=C(NC1(C(=O)NCC(F)F)CC1)c1ccc(/C=C/C(c2cc(Br)cc(Br)c2)C(F)(F)F)cc1C(F)(F)F` (centres unmarked) [Compound P1195], the mortality at 50 µg/cm2 in experiment [1] and in experiment [2] was 50 to 100% each time.
Consider `O=C(NC1(C(=O)NCCC(F)(F)F)CC1)c1ccc(/C=C/C(c2cc(Cl)c(Cl)c(Cl)c2)C(F)(F)F)cc1C(F)(F)F` (centres unmarked) [Compound P1035], for which the mortality at 50 µg/cm2 in experiment [1] and in experiment [2] was 50 to 100% each time.
`O=C(NC1(C(=O)NCC(F)(F)F)CC1)c1ccc(/C=C/C(c2cc(Cl)c(Cl)cc2Cl)C(F)(F)F)cc1C(F)(F)F` (centres unmarked) [Compound P110]: the mortality at 50 µg/cm2 in experiment [1] and in experiment [2] was 50 to 100% in each case.
Turning to `O=C(NC1(C(=O)NCC(F)F)CC1)c1ccc(/C=C/C(c2cc(Cl)c(Cl)c(Cl)c2)C(F)(F)F)cc1C(F)(F)F` (centres unmarked) [Compound P1015], the mortality at 50 µg/cm2 in experiment [1] and in experiment [2] was 50 to 100% in each case.
For the compound `O=C(NC1(C(=O)NCC(F)(F)F)CC1)c1ccc(/C=C/C(c2cccc(OC(F)(F)F)c2)C(F)(F)F)cc1C(F)(F)F` (centres unmarked) [Compound P155], the mortality at 50 µg/cm2 in experiment [1] and in experiment [2] was 50 to 100% throughout.
For the compound `CON(CC(F)(F)F)C(=O)C1(NC(=O)c2ccc(/C=C/C(c3cc(Cl)c(Cl)c(Cl)c3)C(F)(F)F)cc2C(F)(F)F)CC1` (centres unmarked) [FA49, (E)-N-(1-(Methoxy(2,2,2-trifluoroethyl)carbamoyl)cyclopropyl)-4-(4,4,4-trifluoro-3-(3,4,5-trichlorophenyl)but-1-en-1-yl)-2-(trifluoromethyl)benzamide], the mortality at 50 µg/cm2 in experiment [1] and in experiment [2] was 50 to 100% each time.
For `O=C(NC1(C(=O)NCC(F)(F)F)CC1)c1ccc(/C=C/C(c2cc(Cl)c(Br)c(Cl)c2)C(F)(F)F)cc1C(F)(F)F` (centres unmarked) [FA8], the mortality at 50 µg/cm2 in experiment [1] and in experiment [2] was 50 to 100% in each case.
For the compound `O=C(NC1(C(=O)NCC(F)(F)F)CC1)c1ccc(/C=C/[C@@H](c2cc(Cl)c(Cl)c(Cl)c2)C(F)(F)F)cc1C(F)(F)F` (single isomer, unassigned) [Compound F8B], the mortality at 50 µg/cm2 in experiment [1] and in experiment [2] was 50 to 100% in each case.
Consider `O=C(NC1(C(=O)NCCn2ccnc2)CC1)c1ccc(/C=C/C(c2cc(Cl)c(Cl)c(Cl)c2)C(F)(F)F)cc1Br` (centres unmarked) [FA24], for which the values for the mortality at 50 µg/cm2 in experiment [1] and in experiment [2] were 0 to 50% and 0%, respectively.
The matching figures for `O=C(NC1(C(=O)NCC(F)(F)F)CC1)c1ccc(/C=C/C(c2ccc(F)c(F)c2F)C(F)(F)F)cc1C(F)(F)F` (centres unmarked) [Compound P65]: 50 to 100% and 50 to 100%.
`CCNC(=O)C1(NC(=O)c2ccc(/C=C/C(c3cc(Cl)c(Cl)c(Cl)c3)C(F)(F)F)cc2C(F)(F)F)CC1` (centres unmarked) [Compound P1025]: the mortality at 50 µg/cm2 in experiment [1] and in experiment [2] was 50 to 100% throughout.
For the compound `O=C(NC1(C(=O)Nc2ccc(C(F)(F)F)cc2)CC1)c1ccc(/C=C/C(c2cc(Cl)c(Cl)c(Cl)c2)C(F)(F)F)cc1Br` (centres unmarked) [FA36], the mortality at 50 µg/cm2 in experiment [1] and in experiment [2] was 0% throughout.
On to `Cc1cc(C(/C=C/c2ccc(C(=O)NC3(C(=O)NCC(F)(F)F)CC3)c(Br)c2)C(F)(F)F)ccc1Cl` (centres unmarked) [Compound P243], for which the mortality at 50 µg/cm2 in experiment [1] and in experiment [2] was 50 to 100% throughout.
Consider `O=C(NC1(C(=O)NCC(F)(F)F)CC1)c1ccc(/C=C/C(c2ccc(Cl)c(Cl)c2)C(F)(F)F)cc1C(F)(F)F` (centres unmarked) [Compound P1095], for which the mortality at 50 µg/cm2 in experiment [1] and in experiment [2] was 50 to 100% each time.
On to `O=C(NC1(C(=O)NCC(F)(F)F)CC1)c1ccc(/C=C/C(c2ccc(Cl)c(Cl)c2)C(F)(F)F)cc1Br` (centres unmarked) [Compound P1093], for which the mortality at 50 µg/cm2 in experiment [1] and in experiment [2] was 50 to 100% each time.
`COc1ccc(N(C)C(=O)C2(NC(=O)c3ccc(/C=C/C(c4cc(Cl)c(Cl)c(Cl)c4)C(F)(F)F)cc3Br)CC2)cc1` (centres unmarked) [FA41]: the mortality at 50 µg/cm2 in experiment [1] and in experiment [2] was 50 to 100% each time.
Consider `O=C(NC1(C(=O)NCC(F)F)CC1)c1ccc(/C=C/C(c2cc(Br)cc(Br)c2)C(F)(F)F)cc1Br` (centres unmarked) [Compound P1193], for which the mortality at 50 µg/cm2 in experiment [1] and in experiment [2] was 50 to 100% throughout.
In the case of `O=C(NC1(C(=O)NCC2CCOC2)CC1)c1ccc(/C=C/C(c2cc(Cl)c(Cl)c(Cl)c2)C(F)(F)F)cc1Br` (centres unmarked) [FA21], the mortality at 50 µg/cm2 in experiment [1] and in experiment [2] was 50 to 100% each time.
Consider `Cc1cc(C(/C=C/c2ccc(C(=O)NC3(C(=O)NCC(F)(F)F)CC3)c(Br)c2)C(F)(F)F)ccc1F` (centres unmarked) [Compound P693], for which the mortality at 50 µg/cm2 in experiment [1] and in experiment [2] was 50 to 100% throughout.
Consider `N#CC1(NC(=O)c2ccc(/C=C/C(c3cc(Cl)c(Cl)c(Cl)c3)C(F)(F)F)cc2Br)CC1` (centres unmarked) [Compound F7, (E)-2-Bromo-N-(1-cyanocyclopropyl)-4-(4,4,4-trifluoro-3-(3,4,5-trichlorophenyl)but-1-en-1-yl)benzamide], for which the mortality at 50 µg/cm2 in experiment [1] and in experiment [2] was 50 to 100% throughout.
Take `COc1ccccc1CN(C)C(=O)C1(NC(=O)c2ccc(/C=C/C(c3cc(Cl)c(Cl)c(Cl)c3)C(F)(F)F)cc2Br)CC1` (centres unmarked) [FA46]: the mortality at 50 µg/cm2 was in the range of 0 to 50% in experiment [1] and 50 to 100% in experiment [2].
The corresponding values for `CCc1cc(Cl)cc(C(/C=C/c2ccc(C(=O)NC3(C(=O)NCC(F)(F)F)CC3)c(C(F)(F)F)c2)C(F)(F)F)c1` (centres unmarked) [FA10] are 50 to 100% and 50 to 100%.
The corresponding values for `O=C(NC1(C(=S)NCC(F)(F)F)CC1)c1ccc(/C=C/C(c2cc(Cl)c(Cl)c(Cl)c2)C(F)(F)F)cc1C(F)(F)F` (centres unmarked) [Compound F6, (E)-4-(4,4,4-Trifluoro-3-(3,4,5-trichlorophenyl)but-1-enyl)-N-(1-(2,2,2-trifluoroethylcarbamothioyl)cyclopropyl)-2-(trifluoromethyl)benzamide] are 50 to 100% and 50 to 100%.
As to `O=C(NC1(C(=O)NCC(F)F)CC1)c1ccc(/C=C/C(c2cc(Cl)c(Cl)c(Cl)c2)C(F)(F)F)cc1Br` (centres unmarked) [FA32], the mortality at 50 µg/cm2 in experiment [1] and in experiment [2] was 50 to 100% throughout.
Turning to `O=C(NC1(C(=O)NCCC(F)(F)F)CC1)c1ccc(/C=C/C(c2cc(Br)cc(Br)c2)C(F)(F)F)cc1Br` (centres unmarked) [Compound P1213], the mortality at 50 µg/cm2 in experiment [1] and in experiment [2] was 50 to 100% each time.
For `O=C(NC1(C(=O)NCC(F)(F)F)CC1)c1ccc(/C=C/C(c2ccc(Cl)c([N+](=O)[O-])c2)C(F)(F)F)cc1C(F)(F)F` (centres unmarked) [Compound P470], the mortality at 50 µg/cm2 in experiment [1] and in experiment [2] was 50 to 100% each time.
For `O=C(NC1(C(=O)NCC(F)(F)F)CC1)c1ccc(/C=C/C(c2cc(Cl)cc(Cl)c2)C(F)(F)F)cc1Br` (centres unmarked) [Compound P1048], the mortality at 50 µg/cm2 in experiment [1] and in experiment [2] was 50 to 100% in each case.
For the compound `COc1ccccc1NC(=O)C1(NC(=O)c2ccc(/C=C/C(c3cc(Cl)c(Cl)c(Cl)c3)C(F)(F)F)cc2Br)CC1` (centres unmarked) [FA39], the mortality at 50 µg/cm2 in experiment [1] and in experiment [2] was 0% in each case.
Consider `O=C(NC1(C(=O)NCC(F)(F)F)CC1)c1ccc(/C=C/C(c2ccc(Br)c(Br)c2)C(F)(F)F)cc1Br` (centres unmarked) [Compound P423], for which the mortality at 50 µg/cm2 in experiment [1] and in experiment [2] was 50 to 100% throughout.
For the compound `O=C(NC1CC1(F)F)c1ccc(/C=C/C(c2cc(Cl)c(Cl)c(Cl)c2)C(F)(F)F)cc1Br` (centres unmarked) [Compound P31], the mortality at 50 µg/cm2 in experiment [1] and in experiment [2] was 50 to 100% in each case.
Turning to `O=C(NC1(C(=O)NCC(F)(F)F)CC1)c1ccc(/C=C/C(c2cc(Cl)c(Cl)c(Cl)c2)C(F)(F)C(F)(F)F)cc1C(F)(F)F` (centres unmarked) [Compound P1005], the mortality at 50 µg/cm2 in experiment [1] and in experiment [2] was 50 to 100% throughout.
For the compound `O=C(NC1(C(=O)NCC(F)(F)F)CC1)c1ccc(/C=C/C(c2cc(Cl)cc(Cl)c2)C(F)(F)F)cc1C(F)(F)F` (centres unmarked) [Compound P1050], the mortality at 50 µg/cm2 in experiment [1] and in experiment [2] was 50 to 100% in each case.
Regarding `O=C(NC1(C(=O)NCC(F)(F)F)CC1)c1ccc(/C=C/C(c2cc(Cl)c(Cl)c(Cl)c2)C(F)(F)F)cc1C(F)(F)F` (centres unmarked) [Compound F8], the mortality at 50 µg/cm2 in experiment [1] and in experiment [2] was 50 to 100% each time.
`O=C(NC1(C(=O)NCC(F)(F)F)CC1)c1ccc(/C=C/C(c2cc(Cl)c(Cl)c(Cl)c2)C(F)(F)F)cc1Br` (centres unmarked) [Compound F3]: the mortality at 50 µg/cm2 in experiment [1] and in experiment [2] was 50 to 100% throughout.
